Experiments:
[1] = test system: hypertriglyceridemia and hypercholesterolemia-induced animals; test: Triglyceride concentrations in hypertriglyceridemia and hypercholesterolemia-induced animals (Example 2); assay type: in vivo, New Zealand White rabbits; details: 4 weeks oral once per day, Compound of Formula 1 20 mg/kg/day and/or olmesartan medoxomil 3 mg/kg/day
Text: Male New Zealand White rabbits were used as a test animal. All animals, except for the G1 group animals (negative control group), were fed with an irradiation-sterilized hypertriglyceridemia and hypercholesterolemia diet, i.e., DYET #621082 (Purina #5321 chow with 0.5% cholesterol, 14% coconut oil & 2% Maltose Dextrin, Dyets, Inc., Bethlehem, Pa. 18017), which was purchased from Saeronbio Inc. In order to induce hypertriglyceridemia and hypercholesterolemia, the animals were supplied with the diet for more than 4 weeks. After collecting the blood samples from the animals, serum biochemical analyses were performed thereon. Animals showing significant changes in total cholesterol levels and triglyceride levels were selected, in comparison with the non-treated control group. The selected animals were divided into 4 groups on the basis of the total cholesterol levels and triglyceride levels, thereby all the groups having substantially equal average values in the total cholesterol levels and triglyceride levels. The test materials were dissolved in saline containing 0.5% carboxymethylcellulose sodium and 1% Tween 80 and then administered directly into the stomach using an oral syringe adapted with a latex catheter, once per day for 4 weeks. The test groups are as in the following Table 3. […]

[2] = test system: hypertriglyceridemia and hypercholesterolemia-induced animals; test: HDL cholesterol concentrations in blood of hypertriglyceridemia and hypercholesterolemia-induced animals (Example 2); assay type: in vivo, New Zealand White rabbits; details: 4 weeks oral once per day, Compound of Formula 1 20 mg/kg/day and/or olmesartan medoxomil 3 mg/kg/day; for average HDL cholesterol concentrations, 4 weeks: n=4-7; for Percent increase of HDL cholesterol level (%): in comparison with the G2 group
Text: Male New Zealand White rabbits were used as a test animal. All animals, except for the G1 group animals (negative control group), were fed with an irradiation-sterilized hypertriglyceridemia and hypercholesterolemia diet, i.e., DYET #621082 (Purina #5321 chow with 0.5% cholesterol, 14% coconut oil & 2% Maltose Dextrin, Dyets, Inc., Bethlehem, Pa. 18017), which was purchased from Saeronbio Inc. In order to induce hypertriglyceridemia and hypercholesterolemia, the animals were supplied with the diet for more than 4 weeks. After collecting the blood samples from the animals, serum biochemical analyses were performed thereon. Animals showing significant changes in total cholesterol levels and triglyceride levels were selected, in comparison with the non-treated control group. The selected animals were divided into 4 groups on the basis of the total cholesterol levels and triglyceride levels, thereby all the groups having substantially equal average values in the total cholesterol levels and triglyceride levels. The test materials were dissolved in saline containing 0.5% carboxymethylcellulose sodium and 1% Tween 80 and then administered directly into the stomach using an oral syringe adapted with a latex catheter, once per day for 4 weeks. The test groups are as in the following Table 3.
The blood samples were collected through the jugular vein, from the animals at the day initiating the administration of the test material(s) (i.e., at the time of group-dividing, 0 week), and from the animals (which were fasted for 12 to 16 hours before collecting the blood) at 4 weeks after initiating the administration of the test material(s) (n=4-7).

SMILES: CCCc1nc(C(C)(C)O)c(C(=O)OCc2oc(=O)oc2C)n1Cc1ccc(-c2ccccc2-c2nnn[nH]2)cc1 [Olmesartan medoxomil]
- average triglyceride concentrations, 4 weeks ([1]; 0.5% cholesterol, 14% coconut oil diet, n=4-7): 217.4 mg/dL
- Percent inhibition of triglyceride in the blood (%) ([1]; in comparison with the G2 group): 33.4%
- average HDL cholesterol concentrations, 4 weeks [2]: 125.3 mg/dL
- Percent increase of HDL cholesterol level (%) [2]: 2.6%

SMILES: COc1cc(F)c(C(C)C)cc1-c1ccc(C(F)(F)F)cc1CN1C(=O)O[C@H](c2cc(C(F)(F)F)cc(C(F)(F)F)c2)[C@@H]1C [Compound of Formula 1, (4S,5R)-5-[3,5-bis(trifluoromethyl)phenyl]-3-({2-[4-fluoro-2-methoxy-5-(propan-2-yl)phenyl]-5-(trifluoromethyl)phenyl}methyl)-4-methyl-1,3-oxazolidin-2-one]
- average HDL cholesterol concentrations, 4 weeks [2]: 168.5 mg/dL
- Percent increase of HDL cholesterol level (%) [2]: 37.9%
